Measured values as given in paper PMC8591604, “Targeting Oncogenic Src Homology 2 Domain-Containing Phosphatase 2 (SHP2) by Inhibiting Its Protein–Protein Interactions” (Journal of Medicinal Chemistry, 2021).
Like-named read-outs stand apart in the source and are kept apart here. Each block holds one molecule with its values, some of them ahead of it. Where a SMILES comes first, the peptide text is derived from it. [ ]: non-standard residue; d: D form. The star is where a group is joined. 5FAM = O=C1OC2(c3ccc(O)cc3Oc3cc(O)ccc32)c2ccc(C(=O)*)cc21; pY = N[C@@H](Cc1ccc(OP(=O)(O)O)cc1)C(=O)O

Key:
[1] = molecular target: T1, N-SH2 domain of SHP2 (Homo sapiens, UniProt Q06124); assay: Fluorescence anisotropy direct binding assay; conditions: for standard free energy of binding: assuming a 1 M standard state; for Kd: direct titration of labeled peptide
T1 construct: constructs of the N-SH2 (residues 2–111), C-SH2 (residues 109–217), and PTP (residues 212–528) domains; made in house; host or cells: Escherichia coli (DE3) Rosetta2
T1 sequence (Q06124 2-111): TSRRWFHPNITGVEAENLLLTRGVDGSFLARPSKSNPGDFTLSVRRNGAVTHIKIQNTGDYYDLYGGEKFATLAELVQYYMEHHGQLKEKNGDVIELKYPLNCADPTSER

[2] = Peptide stability in human serum (HPLC); format: in vitro ADME; conditions: in 3 h, positive control
Experimental: (§1) The peptides were dissolved in DMSO (5 mg/mL). In Eppendorf tubes, 1 mL of HEPES buffer (25 mM, pH 7.6) was temperature equilibrated at 37 °C before the addition of 250 μL of human serum and 20 μL of a peptide solution; the reaction was followed for 24 h. At fixed intervals, 100 μL of the solution was withdrawn and added to 200 μL of absolute ethanol. These samples were kept on ice for 15 min and then centrifuged at 13000 rpm for 5 min; the supernatant solutions were analyzed by HPLC and HPLC-MS with a 20% to 60% B gradient in 20 min to follow the reaction. In parallel, samples containing peptide, buffer, and ethanol only were analyzed. A degradation resistance test was also conducted in DMEM (Dulbecco’s modified Eagle’s medium). The experimental conditions are similar to those described above; the reaction was followed for 72 h. The enzymatic degradation resistance tests were followed by HPLC using a 5% to 50% B gradient over 20 min.

[3] = molecular target: T1, N-SH2 domain of SHP2; assay: Fluorescence anisotropy displacement assay; format: binding; conditions: 1.0 nM CF-P9, 40 nM N-SH2; compared with P9
[4] = molecular target: T2, SHP2Δ104 (Homo sapiens, UniProt Q06124); assay: Dephosphorylation of phosphopeptides, malachite green phosphatase assay; format: biochemical; conditions: 100 μM phosphopeptide
T2 construct: the isolated PTP domain preceded by the C-SH2 domain (residues 105–528); made in house; host or cells: Escherichia coli (DE3) Rosetta2
T2 sequence (Q06124 105-528): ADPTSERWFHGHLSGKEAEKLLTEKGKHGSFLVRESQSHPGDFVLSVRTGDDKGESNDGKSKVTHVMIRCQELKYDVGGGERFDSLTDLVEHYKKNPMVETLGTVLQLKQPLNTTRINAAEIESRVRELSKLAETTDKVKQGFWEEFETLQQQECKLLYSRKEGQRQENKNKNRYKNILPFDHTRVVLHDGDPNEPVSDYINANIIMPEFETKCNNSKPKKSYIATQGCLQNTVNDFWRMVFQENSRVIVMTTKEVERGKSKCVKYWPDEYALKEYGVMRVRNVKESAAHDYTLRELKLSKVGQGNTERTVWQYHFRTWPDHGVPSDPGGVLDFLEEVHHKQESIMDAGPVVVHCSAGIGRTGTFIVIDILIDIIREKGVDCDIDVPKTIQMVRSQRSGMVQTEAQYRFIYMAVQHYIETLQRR
Experimental: The ability of SHP2 to dephosphorylate the phosphopeptides was evaluated through a malachite green phosphatase assay (PTP assay kit 1, Millipore). The BTAM peptide and the following monophosphorylated peptides derived from known SHP2 substrates were used for comparison: DKQVE-pY-LDLDL (GAB1Y657), EEENI-pY-SVPHD (p190A/RhoGAPY1105), and VDADE-pY-LIPQQ (EGFRY1016) (Primm). SHP2Δ104 (2.4 pmol) was incubated with each phosphopeptide at 100 μM (total volume of 25 μL) for different times. The reaction was stopped by adding 100 μL of a malachite green solution. After 15 min, the absorbance was read at 655 nm, using a microplate reader, and compared with a phosphate standard curve to determine the release of phosphate. Data obtained in the linear region of the curve were normalized to the reaction time (1 min). Each experiment was performed in duplicate.

[5] = molecular target: N-SH2 domain; set-up: method as in ref 48 (a number printed in a supplementary file, which may have a reference list of its own: not looked up in the article's list); conditions: Radioactively labeled peptide; cited from earlier work
[6] = molecular target: N-SH2 domain; set-up: method as in ref 19 (a number printed in a supplementary file, which may have a reference list of its own: not looked up in the article's list); conditions: Isothermal titration calorimetry; cited from earlier work
[7] = Peptide stability in DMEM; format: in vitro ADME; conditions: 3 days; data not shown
Experimental: as §1

Molecule: CC[C@H](C)[C@H](NC(=O)[C@H](Cc1ccc(OP(=O)(O)O)cc1)NC(=O)[C@H](CC(N)=O)NC(=O)[C@H](CC(C)C)NC(=O)CNC(=O)c1ccc2c(c1)C(=O)OC21c2ccc(O)cc2Oc2cc(O)ccc21)C(=O)N[C@@H](CC(=O)O)C(=O)N[C@@H](CC(C)C)C(=O)N[C@@H](CC(=O)O)C(=O)N[C@@H](CC(C)C)C(N)=O [CF-P9, CF-GLN-pY -IDLDL] (5FAM-GLN[pY]IDLDL-NH2)
standard free energy of binding [1]: -9.94 ± 0.024 kcal/mol
Kd [1]: 53 ± 2 nM

degradation in human serum [2]: totally degraded
Molecule: CC[C@H](C)[C@H](NC(=O)[C@H](C)NC(=O)[C@H](CCCCN)NC(=O)CNC(=O)[C@H](Cc1ccc(O)cc1)NC(=O)[C@H](Cc1ccc(O)cc1)NC(=O)[C@H](CCCCN)NC(=O)[C@H](Cc1ccccc1)NC(=O)[C@@H](N)Cc1c[nH]c2ccccc12)C(=O)N[C@@H](Cc1ccc(O)cc1)C(=O)O [XP] (H-WFKYYGKAIY-OH)

Molecule: CC[C@H](C)[C@H](NC(=O)[C@H](Cc1ccc(OP(=O)(O)O)cc1)NC(=O)[C@H](CC(N)=O)NC(=O)[C@H](CC(C)C)NC(C)=O)C(=O)N[C@@H](CC(=O)O)C(=O)N[C@@H](CC(C)C)C(=O)N[C@@H](CC(=O)O)C(=O)N[C@@H](CC(C)C)C(N)=O [P8, LN-pY -IDLDL] (Ac-LN[pY]IDLDL-NH2)
effect of shortening the sequence on affinity (displacement curves) [3]: No significant loss of affinity
dephosphorylation by SHP2Δ104 [4]: dephosphorylation was indeed observed

Molecule: SLN-pY-IDLDLVKD [IRS-1 pY1172]
Kd [5]: 1000 to 10000 nM
Kd [6]: 51 nM

Molecule: CC[C@H](C)[C@H](NC(=O)[C@H](Cc1ccc(C(F)(F)P(=O)(O)O)cc1)NC(=O)[C@H](CC(N)=O)NC(=O)[C@H](CC(C)C)NC(=O)CNC(C)=O)C(=O)N[C@@H](CC(=O)O)C(=O)N[C@@H](CC(C)C)C(=O)N[C@@H](CC(=O)O)C(=O)N[C@@H](Cc1c[nH]c2ccccc12)C(N)=O [OP, GLN- F2Pmp-IDLDW]
stability in DMEM [7]: stable

Molecule: CC[C@H](C)[C@H](NC(=O)[C@H](Cc1ccc(OP(=O)(O)O)cc1)NC(=O)[C@H](CC(N)=O)NC(=O)[C@H](CC(C)C)NC(C)=O)C(=O)N[C@@H](CC(=O)O)C(=O)N[C@@H](CC(C)C)C(=O)N[C@@H](CC(=O)O)C(=O)N[C@@H](Cc1c[nH]c2ccccc12)C(N)=O [P8W5, LN-pY -IDLDW]
dephosphorylation by SHP2Δ104 [4]: dephosphorylation was indeed observed

affinity, times lower than the phosphorylated peptide ([1]; CF-P9Y0 vs CF-P9): approximately 100 times
standard free energy of binding [1]: -7.07 ± 0.048 kcal/mol
Kd [1]: 6600 ± 600 nM
Molecule: CC[C@H](C)[C@H](NC(=O)[C@H](Cc1ccc(O)cc1)NC(=O)[C@H](CC(N)=O)NC(=O)[C@H](CC(C)C)NC(=O)CNC(=O)c1ccc2c(c1)C(=O)OC21c2ccc(O)cc2Oc2cc(O)ccc21)C(=O)N[C@@H](CC(=O)O)C(=O)N[C@@H](CC(C)C)C(=O)N[C@@H](CC(=O)O)C(=O)N[C@@H](CC(C)C)C(N)=O [CF-P9Y0, CF-GLN- Y -IDLDL] (5FAM-GLNYIDLDL-NH2)

Molecule: N-pY -IDLDL [P7]
effect of shortening the sequence on affinity (displacement curves) [3]: drastic perturbation of the complex stability
